# Source: US8252946B2, “Crystalline forms of tigecycline hydrochloride” (Sandoz AG, priority 2007, dated 2012)
# How the values were obtained:
# Format in all cases: physicochemical
# [1] = Thermal stability: 4-Epi-Tigecycline and total impurities at ambient conditions and after 7 days at 80° C.
# Excerpt: Tigecycline must be available in a physical stable form as well, in order to avoid degradation and as a consequence the building of undesired byproducts.
# [2] = Water content on storage at defined relative humidity at 25° C.
# Experimental: The water content of crystalline form A of Tigecycline hydrochloride may vary from about 0-6.0% e.g. the water content is 0% when stored at 1.7% relative humidity at 25° C., 2.7% when stored at 42.7% relative humidity at 25° C. and 5.8% when stored at 80% relative humidity at 25° C.
# [3] = Water solubility testing (saturated solution in distilled water, UV-vis at 347 nm)
# Experimental: The finished dosage form contains lyophilized amorphous Tigecycline respectively Tigecycline hydrochloride. Before lyophilizing, Tigecycline respectively Tigecycline hydrochloride is dissolved in water, thus water solubility is an important factor to consider.
# A UV-vis Lambda 35 spectrophotometer (Perkin-Elmer) was used (λ=347 nm, 1.0 cm quartz cells). Perkin Elmer® UV Win Lab-5.1 software was used.
# A saturated solution of Tigecycline respectively Tigecycline hydrochloride in distilled water was prepared and the suspension was stirred at room temperature for 30 minutes with a stirring speed of 1000 U/min. The suspension was filtrated through a 0.45 μm filter. Finally the resulting solution was diluted 10000-fold and measured against water at a wavelength of 347 nm.
# [4] = Conversion into other crystalline or amorphous forms on storing at elevated temperature; conditions: after storing for 7 days at 80° C.
# [5] = Storage stability of lyophilized amorphous Tigecycline hydrochloride at room temperature; conditions: stored for about 9 months at room temperature
# Experimental: Moreover crystalline forms A and B of Tigecycline hydrochloride of the present invention show better physical stability than amorphous Tigecycline hydrochloride. For example amorphous Tigecycline hydrochloride was prepared by lyophilization and stored for about 9 months at room temperature. […] Therefore amorphous Tigecycline hydrochloride is not suitable as an intermediate for the formulation of an anti-infective medicament, due to the low stability.
# [6] = after storing for 7 days at 80° C.
smiles,measurement,setting,value
"CN(C)c1cc(NC(=O)CNC(C)(C)C)c(O)c2c1C[C@H]1C[C@H]3[C@H](N(C)C)C(O)=C(C(N)=O)C(=O)[C@@]3(O)C(O)=C1C2=O.Cl [Form A, Tigecycline hydrochloride]",change in 4-Epi-Tigecycline content (in words),[1]; [6],practically did not change
same,change in total impurities (in words),[1]; [6],low
same,4-EPI-TIGECYCLINE AT AMBIENT CONDITIONS,"[1]; listed as A, hydrochloride",0.84
same,TOTAL IMPURITIES AT AMBIENT CONDITIONS,"[1]; listed as A, hydrochloride",1.07
same,"water content, span of variation","[2]; may vary, depending on relative humidity",0-6.0%
same,water content,[2]; stored at 1.7% relative humidity at 25° C.,0%
same,water content,[2]; stored at 42.7% relative humidity at 25° C.,2.7%
same,water content,[2]; stored at 80% relative humidity at 25° C.,5.8%
same,water solubility compared with the other crystalline forms (in words),[3],highest water solubility
same,solubility thermodynamic at 30 min,"[3]; water, saturated solution in distilled water, stirred 30 minutes at room temperature, filtered 0.45 μm, read-out: Water solubility, CONCENTRATION",503 mg/mL
same,conversion into other crystalline or amorphous forms,[4],did not convert
"CN(C)c1cc(NC(=O)CNC(C)(C)C)c(O)c2c1C[C@H]1C[C@H]3[C@H](N(C)C)C(O)=C(C(N)=O)C(=O)[C@@]3(O)C(O)=C1C2=O.Cl [Form B, Tigecycline hydrochloride]",4-EPI-TIGECYCLINE AT AMBIENT CONDITIONS,"[1]; listed as B, hydrochloride",0.93
same,TOTAL IMPURITIES AT AMBIENT CONDITIONS,"[1]; listed as B, hydrochloride",1.91
same,"Water solubility, CONCENTRATION","[3]; saturated solution in distilled water, stirred 30 minutes at room temperature, filtered 0.45 μm, hydrochloride",323 mg/mL
"CN(C)c1cc(NC(=O)CNC(C)(C)C)c(O)c2c1C[C@H]1C[C@H]3[C@H](N(C)C)C(O)=C(C(N)=O)C(=O)[C@@]3(O)C(O)=C1C2=O [WO 2006/128150 I, (4S,4aS,5aR,12aS)-4,7-Bis(dimethylamino)-9-[[[(1,1-dimethylethyl)amino]acetyl]amino]-1,4,4a,5,5a,6,11,12a-octahydro-3,10,12,12a-tetrahydroxy-1,11-dioxo-2-naphthacenecarboxamide]",change in total impurities (in words),[1]; [6],tremendous increase
same,4-EPI-TIGECYCLINE AT AMBIENT CONDITIONS,[1],0.36
same,TOTAL IMPURITIES AT AMBIENT CONDITIONS,[1],0.75
"CN(C)c1cc(NC(=O)CNC(C)(C)C)c(O)c2c1C[C@H]1C[C@H]3[C@H](N(C)C)C(O)=C(C(N)=O)C(=O)[C@@]3(O)C(O)=C1C2=O [WO 2006/128150 II, (4S,4aS,5aR,12aS)-4,7-Bis(dimethylamino)-9-[[[(1,1-dimethylethyl)amino]acetyl]amino]-1,4,4a,5,5a,6,11,12a-octahydro-3,10,12,12a-tetrahydroxy-1,11-dioxo-2-naphthacenecarboxamide]",change in total impurities (in words),[1]; [6],tremendous increase
same,4-EPI-TIGECYCLINE AT AMBIENT CONDITIONS,[1],1.04
same,TOTAL IMPURITIES AT AMBIENT CONDITIONS,[1],1.60
"CN(C)c1cc(NC(=O)CNC(C)(C)C)c(O)c2c1C[C@H]1C[C@H]3[C@H](N(C)C)C(O)=C(C(N)=O)C(=O)[C@@]3(O)C(O)=C1C2=O [WO 2006/128150 III, (4S,4aS,5aR,12aS)-4,7-Bis(dimethylamino)-9-[[[(1,1-dimethylethyl)amino]acetyl]amino]-1,4,4a,5,5a,6,11,12a-octahydro-3,10,12,12a-tetrahydroxy-1,11-dioxo-2-naphthacenecarboxamide]",4-EPI-TIGECYCLINE 7 DAYS AT 80° C.,[1]; after storing 7 days at 80° C.,2.18
same,TOTAL IMPURITIES 7 DAYS AT 80° C.,[1]; after storing 7 days at 80° C.,4.46%
same,4-EPI-TIGECYCLINE AT AMBIENT CONDITIONS,[1],0.16
same,TOTAL IMPURITIES AT AMBIENT CONDITIONS,[1],0.16%
same,"Water solubility, CONCENTRATION","[3]; saturated solution in distilled water, stirred 30 minutes at room temperature, filtered 0.45 μm",174 mg/mL
"CN(C)c1cc(NC(=O)CNC(C)(C)C)c(O)c2c1C[C@H]1C[C@H]3[C@H](N(C)C)C(O)=C(C(N)=O)C(=O)[C@@]3(O)C(O)=C1C2=O [WO 2006/128150 IV, (4S,4aS,5aR,12aS)-4,7-Bis(dimethylamino)-9-[[[(1,1-dimethylethyl)amino]acetyl]amino]-1,4,4a,5,5a,6,11,12a-octahydro-3,10,12,12a-tetrahydroxy-1,11-dioxo-2-naphthacenecarboxamide]",4-EPI-TIGECYCLINE AT AMBIENT CONDITIONS,[1],0.23
same,TOTAL IMPURITIES AT AMBIENT CONDITIONS,[1],0.40
"CN(C)c1cc(NC(=O)CNC(C)(C)C)c(O)c2c1C[C@H]1C[C@H]3[C@H](N(C)C)C(O)=C(C(N)=O)C(=O)[C@@]3(O)C(O)=C1C2=O [WO 2006/128150 V, (4S,4aS,5aR,12aS)-4,7-Bis(dimethylamino)-9-[[[(1,1-dimethylethyl)amino]acetyl]amino]-1,4,4a,5,5a,6,11,12a-octahydro-3,10,12,12a-tetrahydroxy-1,11-dioxo-2-naphthacenecarboxamide]",4-EPI-TIGECYCLINE AT AMBIENT CONDITIONS,[1],<0.05
same,TOTAL IMPURITIES AT AMBIENT CONDITIONS,[1],0.22
"CN(C)c1cc(NC(=O)CNC(C)(C)C)c(O)c2c1C[C@H]1C[C@H]3[C@H](N(C)C)C(O)=C(C(N)=O)C(=O)[C@@]3(O)C(O)=C1C2=O [WO 2007/127292 I, (4S,4aS,5aR,12aS)-4,7-Bis(dimethylamino)-9-[[[(1,1-dimethylethyl)amino]acetyl]amino]-1,4,4a,5,5a,6,11,12a-octahydro-3,10,12,12a-tetrahydroxy-1,11-dioxo-2-naphthacenecarboxamide]",4-EPI-TIGECYCLINE AT AMBIENT CONDITIONS,[1]; listed as WO2007/127792 I,0.34
same,TOTAL IMPURITIES AT AMBIENT CONDITIONS,[1]; listed as WO2007/127792 I,0.59
"CN(C)c1cc(NC(=O)CNC(C)(C)C)c(O)c2c1C[C@H]1C[C@H]3[C@H](N(C)C)C(O)=C(C(N)=O)C(=O)[C@@]3(O)C(O)=C1C2=O [WO 2007/127292 II, (4S,4aS,5aR,12aS)-4,7-Bis(dimethylamino)-9-[[[(1,1-dimethylethyl)amino]acetyl]amino]-1,4,4a,5,5a,6,11,12a-octahydro-3,10,12,12a-tetrahydroxy-1,11-dioxo-2-naphthacenecarboxamide]",4-EPI-TIGECYCLINE AT AMBIENT CONDITIONS,[1]; listed as WO2007/127792 II,0.17
same,TOTAL IMPURITIES AT AMBIENT CONDITIONS,[1]; listed as WO2007/127792 II,0.24
"CN(C)c1cc(NC(=O)CNC(C)(C)C)c(O)c2c1C[C@H]1C[C@H]3[C@H](N(C)C)C(O)=C(C(N)=O)C(=O)[C@@]3(O)C(O)=C1C2=O.Cl [amorphous Tigecycline hydrochloride, Tigecycline hydrochloride]",4-Epi-Tigecycline content,[5],19.56%
same,total impurities,[5],21.55%
